Assay results as given in US8822517B2, “Arylosulfonamides for the treatment of CNS diseases” (Adamed SP. Z O.O., priority 2010, dated 2014).
Marks after values point to notes of the source that are not given here.

Columns and labels:
[1] = molecular target: T1, histaminergic receptor (Cavia porcellus, UniProt P31389); assay: Guinea-pig ileum test, antagonism of histamine contraction; settings: antagonistic activity towards histaminergic receptor, agonist histamine, read-out: H ant** (pKb) (converted)
T1 construct: Terminal ileum was dissected and placed into a Krebs solution; from tissue; host or cells: guinea-pig terminal ileum segments (organ bath)
Experimental: Ileum was prepared from male guinea-pigs with 300-350 g of body weight, fasted for 24 h before experiment with free access to drinking water. Terminal ileum was dissected and placed into a Krebs solution (NaCl 120 mM, KCl 5.6 mM, MgCl2 2.2 mM, CaCl2 2.4 mM, NaHCO3 19 mM, glucose 10 mM) and 2 cm-long fragments were cut. Each segment of the gut was placed in 30 ml chamber filled with the Krebs solution at 37 C, pH 7.4, with constant oxygenation (O2/CO2, 19:1), fixed by the lower end to a glass rod and by the upper end to the force-displacement transducer FDT 10-A (Biopac Systems, COMMAT, Ltd., Turkey). The preparation was allowed to stabilize in organ baths for 60 min under a resting tension of 0.5 g, washing every 15 min with fresh Krebs solution. All responses were recorded using software Biopac Systems Inc MP-35 Data Acquisition, Turkey.
In next step, stock solutions were diluted 10× in water.
The equilibration period a cumulative concentration-response curve was constructed in so each tissue for respective agonist—carbachol (3×10^−9−3×10^−6 M) or histamine (10^−8-10^−5 M) by the method of van Rossum (Ref. 24). Following the first agonist curve, tissues were incubated with one of the concentrations of tested compounds for 15 min and the next cumulative concentration curve to agonist was obtained. Only one concentration of the antagonist was tested in each piece of tissue. Experiments were repeated three to eight times.
After the equilibration period a cumulative concentration-response curve was constructed in each tissue for histamine (10^−8-10^−5 M) by the method of van Rossum. Following the first histamine curve, tissues were incubated with one of the concentrations of tested compounds for 15 min and the next cumulative concentration curve to histamine was obtained. Only one concentration of the antagonist was tested in each piece of tissue. Experiments were repeated three to seven times.
Concentration-response curves were analysed using GraphPad Prism 4.0 (GraphPad Software Inc., San Diego, Calif., USA). […]

[2] = system: Wistar rats; assay: Forced swimming test (Porsolt's test) in rats; assay type: in vivo
Excerpt: (§1) Drug-naive male Wistar rats (Charles River, Sulzfeld, Germany) weighing 250-400 g were used in all experiments. Rats were housed two per standard plastic cage and kept in a room with constant environmental conditions (21-22′C, relative humidity 60%, a 12:12 light-dark cycle with lights on at 7:00 a.m.). Animals were supplied by the breeder two weeks before the onset of behavioral procedures. During this time, the subjects were weighed and handled several times. Tap water and standard lab chow (Labofeed H, WPIK, Kcynia, Poland) was available ad libitum.
(§2) An injection volume of 10 ml/kg (mice) or 2 ml/kg (rats) was used throughout and all compounds were administered intraperitoneally (i.p.), except d-amphetamine that was given subcutaneously (s.c.).
The animals were individually subjected to two experimental trials during which they were forced to swim in a cylinder (40 cm high, 18 cm in diameter) filled with warm water (25° C.) to a height of 15 cm. A video camera was mounted 50 cm above the cylinder. The first (habituation) and second (test) trial lasted 15 and 5 minutes, respectively. There was a 24-h interval between the trials. The total duration of immobility was measured during the second trial by a trained observer located in a separate room.
Weights and time of immobility were analyzed with the aid of a one-way analysis of variance (ANOVA). […]

[3] = system: mice; assay: MK-801-induced locomotor hyperactivity in mice
Experimental: (§3) All the experiments were performed by two observers unaware of the treatment applied between 9:00 and 14:00 on separate groups of animals. All animals were used only once and were killed immediately after the experiment.
The locomotor activity was recorded with an Opto M3 multi-channel activity monitor (MultiDevice Software v. 1.3, Columbus Instruments). The mice were individually placed in plastic cages (22×12×13 cm) for 30 minutes habituation period, and then the crossings of each channel (ambulation) were counted during 1 h with data recording every 5 minutes. The cages were cleaned up with 70% ethanol after each mouse.
The locomotor activity was recorded according to method described above.
as §2
All the data are expressed as the mean±SEM. The statistical significance of effects was evaluated using separate one-way analysis of variance (ANOVA) with comparison between individual groups by Dunnett's test (when only one drug was given) or by the Tukey's test when two drugs were used; p<0.05, p<0.01 and p<0.001 were considered statistically significant.

[4] = system: Wistar rats; assay: Passive avoidance procedure in rats; settings: passive-avoidance (model of memory disturbance)
Excerpt: as §1
Potentially impairing effects of test substance on learning and memory function in rats were evaluated using a step-through passive avoidance (PA) test. […]
In the training session (acquisition), animals were placed in the lighted compartment and allowed to explore it freely for 10 s. The sliding door was then opened, and the step-through latency for a rat to enter the dark compartment was measured. […]
The test (expression) session was performed 24 h after the training session. […] A step-through latency for animals to enter the dark compartment was measured with a cut-off of 300 s.
Weights and step-trough latencies were analyzed with the aid of a one-way analysis of variance (ANOVA). […]

[5] = system: Wistar rats; assay: 2,5-Dimethoxy-4-iodoamphetamine (DOI)-induced head twitches in rats
Excerpt: as §1, §2
All tests were carried out in a sound-attenuated experimental room between 9:00 a.m. and 3:00 p.m. as described above for spontaneous head twitches. […] Rats were pre-injected i.p. with a test drug 60 min. before the start of the test session. […] Five minutes later, head twitches were counted for 5 minutes. (300 s) by a trained observer.
Total numbers of head twitches (n/5 min.) were analyzed by means of the Kruskal-Wallis analysis of variance (ANOVA). The Mann-Whitney U test was used for individual post hoc comparisons.

[6] = system: Swiss mice; assay: Four-plate test in Swiss mice; assay type: in vivo
[7] = system: Wistar rats; assay: Amphetamine-induced PPI deficits in rats
Excerpt: as §1, §2
The PPI apparatus consisted of eight startle chambers (SR-LAB, San Diego Instruments, San Diego, Calif., USA). […] Startle responses, reflecting the motion of animals in the cylinder so following the acoustic stimulus, were detected by a piezoelectric transducer mounted below the frame. […]
This interval was randomized by the SR-LAB software. Startle responses were measured for 100 ms after the onset of the last trial stimulus. […]
Startle responses (in manufacturer's arbitrary units), and magnitudes of PPI (%) were analyzed with the aid of a one-way analysis of variance (ANOVA). […]

[8] = system: Wistar rats; assay: Elevated plus maze test in rats
Experimental: as §3
Floor of the plus-maze was made of infrared transparent material what means that there are no visible sensors. The plus-maze was placed in a darkened room, and the center of the apparatus was illuminated with a 25 W electric bulb hanging 100 cm above. Plus-maze apparatus was connected to PC software by control chassis. Each rat was gently placed in the center of the plus-maze, facing one of the closed arms, immediately after a 5-min adaptation period in a plastic black box (60×60×35 cm). During a 5-minutes test period, automated Motor Monitor System recorded the number of entries into the closed and open arms, the time spent in and the distance (cm) covered by a rat in either type of the arms. After each trial the maze was wiped clean. All compounds were administered to 5-8 rats per treatment group.

[9] = system: Wistar rats; assay: Conditioned avoidance response (CAR) in rats
Experimental: as §2
Rats trained to avoid the foot shock were placed in the experimental chambers for a 3 min. habituation period followed by 50 CAR trials presented on a 15-s variable interval (VI) schedule. Each trial consisted of a 10 s warning tone and stimulus light (conditioned stimulus) followed by 10 s electric shock (0.5 mA). If during the initial 10 s of the trial an animal crossed through the sliding door, the tone and light were terminated, no shock was applied, and the response was considered as “an avoidance response”. If the animal crossed through the sliding door after a foot shock was initiated, the response was considered as an escape response. […] If a response was made during an intertrial interval, it was punished with 0.5 s shock (0.5 mA). […] On test days, a tested drug was administered i.p. 60 minutes before the start of the test session. Each drug was tested at 3-4 different doses in the same group of eight animals. A 7-day wash-out period was introduced between the subsequent tests. […]
Avoidances, escapes, and “none” responses were analyzed with the aid of a one-way analysis of variance (ANOVA). […]

[10] = system: Wistar rats; assay: Conflict drinking test (Vogel test) in rats; assay type: in vivo
Excerpt: Recording data started immediately after the first lick and every 20 licks rats were punished with an electric shock (0.5 mA, lasting 1 s). […] If a rat was drinking when an impulse was released, it received a shock.

[11] = system: Wistar rats; assay: MK-801-induced stereotyped behaviour in rats; settings: MK-801-induced stereotyped behaviour (glutamate-related psychosis model)
Excerpt: as §1, §2
All tests were carried out in a sound-attenuated experimental room between 9:00 a.m. and 3:00 p.m. Within 24 h prior to testing, rats were habituated to glass observation cages (25×25×40 cm, W×H×L) with wood chip bedding on the floor for 20 min. […] Views of other rats in the experiment were prohibited. Fifteen minutes later, the time spent circling/head waving was recorded by a trained observer for 5 min. […] Rats were pre-injected with a test drug 60 min. before the start of the observation period.
The duration of stereotyped circling was analyzed with the aid of the Kruskal-Wallis analysis of variance (ANOVA). […]

[12] = system: Wistar rats; assay: Apomorphine-induced stereotyped behaviour in rats
Excerpt: as §1, §2
All tests were carried out in a sound-attenuated experimental room between 9:00 a.m. and 3:00 p.m. Within 24 h prior to testing, rats were habituated to glass observation so cages (25×25×40 cm, W×H×L) with wood chip bedding on the floor for 20 min. […] Rats were injected with apomorphine (0.6 mg/kg) and placed in the observation cages. […] Twenty minutes later, the time spent licking/biting and sniffing downward was recorded by a trained observer for 5 minutes (300 s). […]
The duration of stereotyped sniffing and licking/biting was analyzed with the aid of the Kruskal-Wallis analysis of variance (ANOVA). […]

[13] = system: C57BL/6J mice; assay: Tail suspension test in C57BL/6J mice; assay type: in vivo
[14] = molecular target: serotoninergic 5-HT2C receptor (Homo sapiens, UniProt P28335); assay: Cellular functional assay, serotoninergic 5-HT2C receptor (agonism/antagonism); assay type: cell-based; settings: agonist effect, percent of control specific agonist response; 1×10^−6M
Experimental: The compounds were tested at the concentration of 1×10^−6M.
In the Tables ag refers to agonism, and antag to antagonism).

T1 sequence (P31389 whole entry): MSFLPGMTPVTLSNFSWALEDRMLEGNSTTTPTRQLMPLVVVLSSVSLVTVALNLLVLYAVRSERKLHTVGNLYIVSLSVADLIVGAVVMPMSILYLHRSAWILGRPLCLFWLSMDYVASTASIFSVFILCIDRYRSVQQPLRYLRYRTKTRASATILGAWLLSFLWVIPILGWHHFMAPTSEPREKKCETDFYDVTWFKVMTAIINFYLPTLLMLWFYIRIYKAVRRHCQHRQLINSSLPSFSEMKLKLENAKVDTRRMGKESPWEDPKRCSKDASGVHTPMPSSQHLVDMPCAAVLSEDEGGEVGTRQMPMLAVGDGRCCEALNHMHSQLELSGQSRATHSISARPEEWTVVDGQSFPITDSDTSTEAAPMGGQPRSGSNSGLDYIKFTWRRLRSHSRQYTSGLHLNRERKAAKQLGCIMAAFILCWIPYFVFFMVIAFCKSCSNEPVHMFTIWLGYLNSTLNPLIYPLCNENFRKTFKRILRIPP
Sequence of serotoninergic 5-HT2C receptor (P28335 33-458): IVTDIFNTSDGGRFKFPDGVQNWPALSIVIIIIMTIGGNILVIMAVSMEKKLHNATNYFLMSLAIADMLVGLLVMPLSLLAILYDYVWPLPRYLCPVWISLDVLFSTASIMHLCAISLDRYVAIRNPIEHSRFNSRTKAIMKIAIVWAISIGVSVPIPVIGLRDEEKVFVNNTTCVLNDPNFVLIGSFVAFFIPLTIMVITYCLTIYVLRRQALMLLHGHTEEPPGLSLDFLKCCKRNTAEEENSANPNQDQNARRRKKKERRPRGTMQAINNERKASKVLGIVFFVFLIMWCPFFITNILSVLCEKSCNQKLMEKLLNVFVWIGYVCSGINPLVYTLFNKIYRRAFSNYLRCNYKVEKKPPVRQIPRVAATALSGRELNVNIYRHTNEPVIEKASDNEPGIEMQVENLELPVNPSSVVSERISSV

## O=S(=O)(NCCCCN1CCN(c2nsc3ccccc23)CC1)c1cccc2ccccc12 [Compound 1, N-(4-(4-(1,2-Benzothiazol-3-yl)piperazin-1-yl)butyl)naphthalene-1-sulphonamide]
[1]
  Kb: 498 nM

## O=S(=O)(NCCCCN1CCN(c2nsc3ccccc23)CC1)c1ccc2ccccc2c1 [Compound 2, N-(4-(4-(1,2-Benzothiazol-3-yl)piperazin-1-yl)butyl)naphthalene-2-sulphonamide]
[1]
  Kb: 457 nM

## Cc1cccc(S(=O)(=O)NCCCCN2CCN(c3nsc4ccccc34)CC2)c1 [Compound 3, N-(4-(4-(1,2-Benzothiazol-3-yl)piperazin-1-yl)butyl)-3-methylbenzenesulphonamide]
[1]
  Kb: 148 nM

## Cc1cccc(S(=O)(=O)NCCCN2CCC(c3noc4cc(F)ccc34)CC2)c1 [Compound 22, N-[3-[4-(6-Fluoro-1,2-benzoxazol-3-yl)piperidin-1-yl]propyl]-3-methylbenzenesulphonamide]
[2]; Porsolt forced swim test (potential antidepressant activity)
  MED: 0.3 mg/kg
[2]; antidepressant model
  activity in forced swim test (Porsolt) in rats: active
[3]
  activity in MK-801 induced hyperlocomotion: active
[3]; minimum effective dose, MK-801-induced locomotor hyperactivity, i.p.
  MED*: 1.25 mg/kg
[4]
  MED: >30 mg/kg
[5]
  activity in stereotyped behavior induced by DOI: active
[5]; DOI-induced head twitches (serotonin-related psychosis model)
  MED [mg/kg]: ≤ 1 * mg/kg
[6]; four-plate test in mice
  MED: 0.312 mg/kg
[6]; mice, anxiolytic model
  activity in four plates test in mice: active
[7]
  activity in reversal of deficits in prepulse inhibition in rats: active
[7]; prepulse inhibition disruption caused by amphetamine administration
  MED: 30 mg/kg
[8]; anxiolytic model
  activity in elevated plus maze: active
[8]; elevated plus-maze (potential anxiolytic activity)
  MED [mg/kg]: ≤ 0.3 * mg/kg
[9]
  activity in active avoidance response: active
[9]; active-avoidance response (model of positive symptoms of schizophrenia)
  MED: 3 mg/kg
[10]; Vogel test (potential anxiolytic activity)
  MED: 3 mg/kg
[10]; anxiolytic model
  activity in conflict drinking test (Vogel) in rats: active
[11]
  MED: 3 mg/kg
[12]
  activity in stereotyped behavior induced by apomorphine: active
[12]; apomorphine-induced stereotyped behaviour (dopamine-related psychosis model)
  MED: 10 mg/kg
[13]; mice, antidepressant model
  activity in tail suspension test in mice: active
[13]; tail suspension test in C57BL/6J mice
  MED: 0.156 mg/kg

## Cc1c(S(=O)(=O)NCCCCN2CCN(c3nsc4ccccc34)CC2)sc2ccc(F)cc12 [Compound 65, N-[4-[4-(1,2-Benzothiazol-3-yl)piperazin-1-yl]butyl]-5-fluoro-3-methylbenzothiophene-2-sulphonamide]
[14]
  5-HT2C -ag [%]: 0%

## O=S(=O)(NCCCCN1CCN(c2nsc3ccccc23)CC1)c1cc2ccc(Cl)cc2s1 [Compound 241, N-[4-[4-(1,2-Benzothiazol-3-yl)piperazin-1-yl]butyl]-6-chlorobenzothiophene-2-sulphonamide]
[14]
  5-HT2C -ag [%]: −4%
